{"source": "patent US5866511A", "about": "“Stabilized solutions of bromonitromethane and their use as biocides” (Great Lakes Chemical Corporation, priority 1997, dated 1999)", "key": {"[1]": {"assay": "Storage stability of aqueous BNM concentrates (bromide ion concentration by ion selective electrodes over 57 days; gas chromatography)", "format": "physicochemical", "method": "Determination of enhanced formulation stability for solutions of bromonitromethane.\nA study was performed to determine if aqueous concentrates of BNM could be prepared with adequate storage stability to make the material useful as a biocide. […] Less acidified solutions had faster degradation rates.\n(§1) BNM (4.58 g, 91.4% assay) was dissolved in 100 mL of deionized water sample 1. A pH 2.37 solution was prepared by adding one drop of sulfuric acid to 100 mL DI water and then adding 4.60 g of the BNM sample 2. A pH 3.76 solution was prepared by adding one drop of 10% aq sodium hydrogen sulfate to 100 mL DI water and then adding 4.60 g of the BNM sample 3. A pH 7.91 solution was prepared by dissolving 4.60 g of the BNM in 100 mL of DI water. A total of 7.2 g of 16.4% NaOH was then added over six minutes to maintain the pH. That solution turned red, indicating the presence of the bromonitromethylate anion and was slowly becoming acidic before the initial bromide value was determined.\nEach solution was measured for bromide ion concentration using ion selective electrodes over the course of 57 days to determine the degree of hydrolysis.\nAn acidified solution of bromonitromethane (BNM) is prepared by adding one drop of sulfuric acid to 100 ml distilled water and then adding 4.60 g of BNM (91.4% assay). The solution is sampled for gas chromatography assay at the beginning and end of these studies to confirm the BNM concentration. Aqueous solutions of BNM were stable when acidified with mineral acids to acidic pHs. The material hydrolyzed at a very slow rate giving a half-life of over ten years.\nIn a similar manner, acidified bromonitromethane solutions having pHs of about 1.0, 1.5, 2.0, 2.5, 3.0, 3.5 and 4.0 are prepared."}, "[2]": {"test_system": "Pseudomonas aeruginosa", "assay": "Inhibition of bacterial growth in contaminated paint (MIC)", "format": "cell-based", "settings": "for MIC: paint, 25° C., read-out: Minimum Inhibitory Concentration", "method": "Water based paints are subject to microbial attack which could produce viscosity loss or offensive odors. Biocides are added to protect the paint from such degradation in the can. A paint sample was artificially contaminated with Pseudomonas aeruginosa, a bacterium which is frequently found in spoiled paint. […] The thermal treatment inactivates residual biocide present in the paint.\nAcidified solutions of BNM (pH ranging from 1.5 to 3.5) are diluted with sterile water and added at various concentrations to the paint. Positive controls are established by the omission of BNM addition.\nA sterile swab was dipped into the paint and samples are plated onto tryptone glucose extract agar (TGEA; Difco, Detroit, Mich.). Samples of contaminated paint are subsequently swabbed onto sterile TGEA after 1,2,3,7, and 14 days of incubation of 25° C. The plates are incubated for one week at 25° C. Any growth observed on the agar surface during the incubation period is noted. […] The minimum inhibitory concentration (MIC), defined as the lowest concentration of BNM which prevented bacterial growth in the paint, is determined for the inventive solutions."}, "[3]": {"test_system": "Desulfovibrio desulfuricans", "assay": "Inhibition of sulfate reducing bacterium in API broth (MIC)", "format": "cell-based", "settings": "for MIC: read-out: Minimum Inhibitory Concentration", "method": "API broth (Difco, Detroit, Mich.) is inoculated with the sulfate reducing bacterium (SRB) Desulfovibrio desulfuricans (10^4 cells/ml). Stable, acidified solutions of bromonitromethane (pH ranging from 1.5 to 3.6) are added to provide bromonitromethane at various concentrations to the SRB cultures. A positive control is constructed in the same fashion […] BNM addition.\nThe cultures are housed in a GasPak® jar (Becton Dickinson Microbiology Systems, Cockeysville, Md.) under anaerobic conditions (4-10% CO2, <1% O2) at ambient temperature. Cultures are checked weekly for a period of three weeks for visible […] growth indicative of SRB's. […] The minimum inhibitory concentration (MIC), defined as the lowest concentration of BNM which prevented bacterial growth in the API broth tubes, is determined."}, "[4]": {"test_system": "Aspergillus niger", "assay": "Inhibition of fungal growth in synthetic cooling water (MIC)", "format": "cell-based, Aspergillus niger (ATCC 9642)", "settings": "for MIC: 168 h, read-out: Minimum Inhibitory Concentration", "method": "Industrial water presents a favorable environment for fungal growth. Fungi can cause many problems in industrial systems including damage to cooling tower wood fill and decks by delignification. Synthetic water is prepared according to the following formula: 0.2 mM MgSO4, 1.2 mM CaCl2 and 1.0 mM NaHCO3. Cooling water presents a favorable environment for microbiological growth. Fungi can damage the cooling tower wood fill and decks by delignification. Synthetic cooling water (CW) is prepared according to the following formula: 0.2 mM MgSO4, 1.2 mM CaCl2, and 1.0 mM NaHCO. The pH is adjusted to either 6 or 8 with either H2 SO4 or NaOH. The resulting solution is then sterilized by passing through a 0.2 μm filter. Various concentrations of acidified BNM solution (pH ranging from 1.5 to 4.0) are added to aliquots of sterile synthetic water. A positive control is prepared by omitting the BNM.\nThree day old cultures of Aspergillus niger (ATCC 9642) are harvested from the surface of potato dextrose agar (Difco, Detroit, Mich.) supplemented with tartaric acid. The samples are dosed with A. niger to achieve a concentration of 10^3 CFU/ml. These samples are incubated for one week at ambient temperature. The cultures are plated onto PDA in order to recover any surviving mold. These plates are incubated for three days at ambient temperature. […] The minimum inhibitory concentration (MIC), defined as the lowest concentration of BNM which prevented fungal growth on the PDA plates, is determined."}, "[5]": {"test_system": "Anabeana", "assay": "Inhibition of algal growth in Allens medium (MIC), Anabeana", "format": "cell-based", "method": "(§2) Pure cultures of the algal genera Anabeana, Chlamydomonas, and Chlorella are used to inoculate Allens medium at pH 7.5 achieving a final concentration of 10^4 cells/ml. All tests are performed on pure cultures. Various concentrations of acidified BNM solution (for each pH across the pH range of 1.5 to 3.5) are added to the culture tubes. Positive controls are established by the omission of BNM.\n(§3) The algal cultures are housed in a light box (400 ft. candles; light source--cool white fluorescent tubes; 16 h on/8 h off cycles; 22°-26° C.) for three weeks. The cultures are read weekly noting any turbidity and green coloration of the medium which would indicate a positive result. […] The minimum inhibitory concentration was determined, with representative results being shown below."}, "[6]": {"test_system": "Chlamydomonas", "assay": "Inhibition of algal growth in Allens medium (MIC), Chlamydomonas", "format": "cell-based", "method": "as §2, §3"}, "[7]": {"test_system": "Chlorella", "assay": "Inhibition of algal growth in Allens medium (MIC), Chlorella", "format": "cell-based", "method": "as §2, §3"}, "[8]": {"test_system": "Pseudomonas aeruginosa", "assay": "Inhibition of aerobic bacteria in borate buffer (MIC, at least 90% decrease)", "format": "cell-based, Pseudomonas aeruginosa (ATCC 278853)", "method": "Borate buffer (25 mM) is adjusted to either pH 7 or 8. The buffer was sterilized by passing through a 0.2 μm filter. Pseudomonas aeruginosa (ATCC 278853) is added to aliquots of the sterile buffer to achieve a final concentration of 10^6 cells/ml. This population is confirmed by serially diluting a sample in sterile phosphate buffer (0.3 mM) and plating onto tryptone glucose extract agar (TGEA; Difco, Detroit, Mich.). Acidified solutions of bromonitromethane are added at various concentrations to the test cultures. Solutions acidified with acids to pHs of between 1.5 and 3.5 are prepared and tested. Positive controls are established by omitting BNM from the test samples.\nFollowing 3 and 24 hour exposure periods at ambient temperature, the resulting test suspensions are diluted and plated as previously described. All plates are enumerated following an incubation period of 24 hr. at 37° C. The minimum inhibitory concentration is defined as the lowest concentration which decreased the microbial population by at least 90% over the period tested."}, "[9]": {"test_system": "Pseudomonas aeruginosa", "assay": "Inhibition of microbial growth in alkaline paper pulp (MIC, at least 90% decrease)", "format": "cell-based, Pseudomonas aeruginosa (ATCC 27853)", "settings": "read-out: Minimum Inhibitory Concentration", "method": "Microbial growth at various points in a paper making system could produce a slime layer which could drop onto the paper sheet causing product damage and machine downtime due to breaks. Biocides are added to keep the microbial growth in check throughout the system. A pulp slurry (1.25% dry basis) was prepared in sodium phosphate buffer (200 mM, pH 8). The slurry is sterilized by autoclaving at 121° C. for 20 min. Pseudomonas aeruginosa (ATCC 27853) is added to the sterile pulp slurries to achieve a final concentration of 10^6 cells/ml. This population is confirmed by serially diluting a sample in sterile phosphate buffer (0.3 mM) and plating onto tryptone glucose extract agar (TGEA; Difco, Detroit, Mich.). Bromonitromethane is added at various concentrations to the test cultures. Controls are established by omitting BNM from the test samples. Following a 3 and 24 hr. exposure period at ambient temperature, the resulting test suspensions are diluted and plated as previously described. All plates are enumerated following an incubation period of 24 hr. at 37° C. The minimum inhibitory concentration is defined as the lowest concentration which decreased the microbial population by at least 90% over the period tested."}, "[10]": {"assay": "CO2 off-gassing during storage of solutions", "format": "physicochemical", "settings": "stabilized (acidified) solutions, storage under standard conditions", "method": "as §1\nThe solutions of the present invention provide the additional benefit of minimizing off-gassing of CO2 during storage of the solution."}, "[11]": {"test_system": "all the organisms", "settings": "quoted from Clark et al.; attributed to volatility; cited from earlier work"}, "[12]": {"settings": "504 h, Allens medium pH 7.5, three weeks, read-out: Minimum Inhibitory Concentration"}}, "note": "Where two headings read alike, the source gives them in different places."}
{"smiles": "O=[N+]([O-])CBr", "note": "[Bromonitromethane, bromonitromethane]", "values": [{"measurement": "optimum pH for stability", "setting": "[1]; acidified with strong acids", "value": "about 2.3"}, {"measurement": "degradation rate", "setting": "[1]; most stable solution, acidified with H2SO4 to pH 2.3, 72000 min", "value": 0.4, "unit": "% BNM per 50 days"}, {"measurement": "hydrolysis (in words)", "setting": "[1]; non-acidified solutions", "value": "hydrolyze rapidly"}, {"measurement": "MIC", "setting": "[2]; 24 h, 1 day incubation", "value": "2 to 5", "unit": "µg/mL"}, {"measurement": "MIC", "setting": "[2]; 48 h, 2 days incubation", "value": "2 to 5", "unit": "µg/mL"}, {"measurement": "MIC", "setting": "[2]; 72 h, 3 days incubation", "value": "2 to 5", "unit": "µg/mL"}, {"measurement": "MIC", "setting": "[2]; 168 h, 7 days incubation", "value": "2 to 5", "unit": "µg/mL"}, {"measurement": "MIC", "setting": "[2]; 336 h, 14 days incubation", "value": "2 to 5", "unit": "µg/mL"}, {"measurement": "growth inhibition (in words)", "setting": "[2]; acidified BNM solutions", "value": "effective for inhibiting the growth"}, {"measurement": "MIC", "setting": "[3]; 168 h", "value": "< 0.1", "unit": "µg/mL"}, {"measurement": "MIC", "setting": "[3]; 336 h, API broth, anaerobic, pH = 2.37, 2 weeks", "value": "0.1 to 0.5", "unit": "µg/mL"}, {"measurement": "MIC", "setting": "[3]; 504 h, API broth, anaerobic, pH = 2.37, 3 weeks", "value": "0.1 to 0.5", "unit": "µg/mL"}, {"measurement": "growth inhibition (in words)", "setting": "[3]; acidified BNM solutions", "value": "effective for inhibiting the growth"}, {"measurement": "MIC", "setting": "[4]; synthetic cooling water pH 6, one week", "value": "< 1", "unit": "µg/mL"}, {"measurement": "MIC", "setting": "[4]; synthetic cooling water pH 8, one week", "value": "1 to 5", "unit": "µg/mL"}, {"measurement": "growth inhibition (in words)", "setting": "[4]; acidified BNM solutions", "value": "effective for inhibiting the growth"}, {"measurement": "MIC", "setting": "[5]; [12]", "value": "0.5 to 1", "unit": "µg/mL"}, {"measurement": "growth inhibition (in words)", "setting": "[5]; acidified BNM solutions, Anabeana", "value": "effective for inhibiting the growth"}, {"measurement": "MIC", "setting": "[6]; [12]", "value": "0.1 to 0.5", "unit": "µg/mL"}, {"measurement": "growth inhibition (in words)", "setting": "[6]; acidified BNM solutions", "value": "effective for inhibiting the growth"}, {"measurement": "MIC", "setting": "[7]; [12]", "value": "0.5 to 1", "unit": "µg/mL"}, {"measurement": "growth inhibition (in words)", "setting": "[7]; acidified BNM solutions", "value": "effective for inhibiting the growth"}, {"measurement": "MIC", "setting": "[8]; 3 h, pH 7, read-out: Minimum Inhibitory Concentration", "value": "0.6 to 3.2", "unit": "µg/mL"}, {"measurement": "MIC", "setting": "[8]; borate buffer pH 7, 24 hour exposure, ≥90% decrease, read-out: Minimum Inhibitory Concentration", "value": "0.3 to 0.6", "unit": "µg/mL"}, {"measurement": "MIC", "setting": "[8]; borate buffer pH 8, 3 hour exposure, ≥90% decrease, read-out: Minimum Inhibitory Concentration", "value": "0.6 to 3.2", "unit": "µg/mL"}, {"measurement": "MIC", "setting": "[8]; borate buffer pH 8, 24 hour exposure, ≥90% decrease, read-out: Minimum Inhibitory Concentration", "value": "0.3 to 0.6", "unit": "µg/mL"}, {"measurement": "MIC", "setting": "[9]; pulp slurry pH 8, 3 hr exposure", "value": "1 to 5", "unit": "µg/mL"}, {"measurement": "MIC", "setting": "[9]; pulp slurry pH 8, 24 hr exposure", "value": "< 1", "unit": "µg/mL"}, {"measurement": "CO2 off-gassing vs non-stabilized solutions", "setting": "[10]", "value": "substantially reduce off-gassing (CO2)"}, {"measurement": "inhibition of organisms (in words)", "setting": "[11]", "value": "inhibited all the organisms . . . but gave inconsistent results"}]}
